Results as given in patent publication US10030036B2, “Method and dyes for detecting and destroying cancer cells” (Lahjavida, LLC, priority 2009, dated 2018).

Test: near infrared fluorescent spectral properties
Format: physicochemical
Text: Some of these compounds in formula 1-8 and the compounds shown in Scheme 1 have variable water solubility, near infrared fluorescent spectral properties suitable for in-vivo tissue imaging (e.g. MHI-148 has λmax absorption 780 nm and high intensity λmax emission 800 nm (FIG. 1)), and have been tested to have similar activities in near infrared fluorescent imaging of tumor cells and inhibiting tumor cell growth in vitro, and permit selective destruction of any gold labeled cancer cells via radiofrequency treatment. The solubility of the labeled gold particles may be controlled by the dye molecules attached to the surface of gold particles or by additional solubilization groups attached to the gold particle surface as it is described by the literature or by prior art. Biodistribution of these gold particles are determined by the molecules attached to the gold particle surface and particle size.

In the case of `CC1(C)C(/C=C/C2=C(Cl)C(=C/C=C3\Cc4ccccc4N3CCCCCC(=O)O)/CCC2)=[N+](CCCCCC(=O)O)c2ccccc21` [MHI-148], the λmax absorption was 780 nm and the λmax emission (high intensity) was 800 nm.
